From PMC9603178, “Human Claudin-Derived Peptides Block the Membrane Fusion Process of Zika Virus and Are Broad Flavivirus Inhibitors” (Microbiology Spectrum, 2022)
Where a SMILES comes first, the peptide text is derived from it. Where no end group is shown, it is not given here. [ ]: non-standard residue; d: D form.

Tests used:
[1] = tested on: ZIKV (Brazil/2016/INMI1 strain); experiment: Dose-dependent effect on ZIKV infection of Vero E6 cells; assay type: cell-based, Zika virus; conditions: MOI of 1, Brazil/2016/INMI1 strain, fitted dose-response model
Protocol: FIG 4 Amphipathicity was involved in the differences in potency between claudin-derived peptides. […] Three amino acids of interest at positions 11, 15, and 18 are indicated. (B) Sequences of the parental and modified peptides. The swapped amino acids are highlighted. (C) ZIKV (MOI of 1) was treated with 50 μM of the modified peptides described in (B) for 1 h. […] Left or right orientations of the helixes are indicated with an arrow and the hydrophobic faces of each peptide are shown with a black line. […] The dark line represents the fitted dose-response model for each peptide and the light area represents the 95% confidence interval of the model. The calculated IC50 is indicated.
A D-enantiomer of an alpha helix forms a mirrored left-handed helix (Fig. 4D) but retains the same physicochemical properties ([28]).

ZIKV [2] = experiment: ZIKV internalization assay in hCMEC/D3 cells; assay type: cell-based, Zika virus; conditions: 2 h at 37°C
ZIKV [3] = experiment: ZIKV binding assay on hCMEC/D3 cells; assay type: cell-based, Zika virus
ZIKV [4] = experiment: ZIKV viral production, supernatants of infected hCMEC/D3 cells titrated on Vero E6 cells; assay type: cell-based, Zika virus; conditions: 50 μM peptide, MOI of 1, titrated on Vero E6
ZIKV [5] = experiment: ZIKV replication and production in TrHBMEC, HUVEC, A549 and HEK 293T cells; assay type: cell-based, Zika virus; conditions: 50 μM peptide, MOI of 1, HUVEC, RT-qPCR and titration
ZIKV E-mediated fusion = assay type: cell-based, Zika virus; conditions: C6/36 infected with ZIKV MOI of 2 for 48 h, acidification 2 h, fusion index
SARS-CoV-2 = assay type: cell-based; conditions: 50 μM, Vero E6 cells, MOI of 1, 72 h, flow cytometry
ZIKV [6] = conditions: for IC50: read-out: IC50, ZIKV infection in hCMEC/D3, ZIKV MOI of 1, hCMEC/D3, fitted dose-response model, R^2 0.9 (CL1.1) and 0.7 (CL7.1)
Caco-2 epithelial cells = conditions: 50 μM, differentiated Caco-2 monolayers on Transwell, over 24 h, n = 3
HIV-1 = conditions: 50 μM, human primary CD4+ T cells, 72 h, flow cytometry
HCV = tested on: HCV; parameters: method as in PMID 22378192; conditions: Huh7.5.1 cells; cited from earlier work
ZIKV [7] = experiment: Pretreatment of hCMEC/D3 cells with peptide before ZIKV infection; conditions: 10 μM for 1 h, cells washed, then ZIKV MOI of 1 for 48 h, hCMEC/D3, RT-qPCR
ZIKV [8] = experiment: Treatment of concentrated ZIKV stock followed by 30-fold dilution and infection of hCMEC/D3; conditions: ZIKV stock 1.5 × 10^7 PFU/mL treated with 10 μM for 1 h, diluted by a factor of 30, hCMEC/D3, 48 h

CC[C@@H](C)[C@@H](NC(=O)[C@@H](Cc1ccccc1)NC(=O)CNC(=O)[C@@H](CC(C)C)NC(=O)[C@@H](CC(C)C)NC(=O)[C@@H](CCC(N)=O)NC(=O)[C@@H](CC(C)C)NC(=O)CNC(=O)[C@@H](C)NC(=O)[C@@H](CC(N)=O)NC(=O)[C@@H](C)NC(=O)[C@H](N)CCSC)C(=O)N[C@H](CC(C)C)C(=O)N[C@H](C)C(=O)N[C@H](Cc1ccccc1)C(=O)N[C@H](CC(C)C)C(=O)NCC(=O)N[C@H](Cc1c[nH]c2ccccc12)C(=O)O [D-CL1.1] (H-[dM][dA][dN][dA]G[dL][dQ][dL][dL]G[dF][dI][dL][dA][dF][dL]G[dW]-OH; N-terminus and C-terminus assumed)
IC50 [1]: 670 ± 40 nM
antiviral properties against JEV compared with CL1.1 (JEV): comparable to that of CL1.1
antiviral properties against YFV compared with CL1.1 (YFV; Vero E6, MOI of 1, increasing concentrations (Fig. S6)): comparable to that of CL1.1

O=C(N/N=C/c1ccc(O)c(O)c1)c1cc2ccccc2cc1O [Dynasore, reference compound]
reduction of viral internalization (ZIKV [2]; 100 μM, positive control, hCMEC/D3): 95%

Heparin [reference compound]
reduction of viral binding (ZIKV [3]; 200 μg/mL, positive control, 1 h at 4°C, MOI of 10, hCMEC/D3): 80%

MANAGLQLLGFILAFLGW [CL1.1]
viral production (infectious particles in supernatants) (ZIKV [4]): below the detection limit of the assay
ZIKV replication and production (ZIKV [5]): undetectable
binding of ZIKV to hCMEC/D3 cells (ZIKV [3]; 10 μM, inoculum treated 1 h, adsorption 1 h at 4°C, MOI of 10, RT-qPCR): did not alter
ZIKV internalization in hCMEC/D3 cells (ZIKV [2]; 10 μM, trypsin removal of surface virus, RT-qPCR): did not alter
reduction of syncytium formation (ZIKV E-mediated fusion; 10 μM): 80%
IC50 [1]: 710 ± 50 nM
antiviral activity against SARS-CoV-2 infection (SARS-CoV-2): No antiviral activity
intracellular viral RNA levels / impact on ZIKV infection (ZIKV [6]; 50 μM peptide, hCMEC/D3, MOI of 1, 48 h, RT-qPCR): below the threshold of detection
IC50 (ZIKV [6]): ~870 nM
electric transepithelial resistance (Caco-2 epithelial cells): did not alter
IC50 (YFV; read-out: IC50, YFV, Vero E6, MOI of 1, YFV/17D strain, titration of supernatants): 560 ± 50 nM
antiviral activity against HIV-1 infection (HIV-1): No antiviral activity
antiviral activity against HCV infection (HCV): exhibited antiviral activity
cell susceptibility to ZIKV after pretreatment of cells (ZIKV [7]): did not affect cell susceptibility to ZIKV
reduction of intracellular viral RNA levels (ZIKV [8]): 80%

MANSGLQLLGFSMALLGW [CL7.1]
viral production (infectious particles in supernatants) (ZIKV [4]): significantly reduced
ZIKV replication and production (ZIKV [5]): significantly reduced
reduction of syncytium formation / fusion (ZIKV E-mediated fusion; 50 μM): 40%
reduction of viral RNA levels compared to untreated cells (ZIKV [6]; 50 μM peptide, inoculum treated 1 h, adsorption 2 h, MOI of 1, peptide kept 48 h, hCMEC/D3, RT-qPCR): 2 fold
antiviral activity in the absence of pretreatment (ZIKV [6]; 50 μM, virus and peptide added simultaneously to the cell culture, hCMEC/D3): also detected
IC50 (ZIKV [6]): 53000 ± 13000 nM
